Experimental data reported in patent publication US5068064A, “N-substituted lauramides, their preparation and compositions in which they are present” (Sanofi, priority 1989, dated 1991).
≈ marks a conversion by molar mass, not a printed value. Where a name gives a salt, the structure may show the parent alone.

Assays:
[1] = test system: Staphylococcus aureus CIP 53154; assay: Minimum bactericidal concentration, first method (30 min contact), S. aureus; type: cell-based; settings: CIP53154, 0.5 h, contact time 30 minutes
Excerpt: (§1) In the two methods, a bacterial inoculum is brought into contact with different dilutions of the product for a determined period of time.
(§2) When the contact period has ended, an aliquot of the mixture of bacterial suspension and product is taken and brought into contact with an agent for neutralizing the bacterial activity of the mixture, either in a solid medium or in a liquid medium. The bactericidal activity of the product, expressed either as a concentration or as a percentage of active principle, corresponds to an absence of bacterial growth.
(§3) The first method makes it possible to define a minimum bactericidal concentration (MBC) or minimum fungicidal concentration (MFC), expressed in μg/ml. The contact time between product and bacterial suspension is 30 minutes. The neutralizer is included in agar.
(§4) The CIP bacterial strains chosen for the study, which are available from the Institut Pasteur, are:
(§5) 1. Staphylococcus aureus
(§6) The strains are maintained on Tryptic Soy Agar® (TSA) marketed by Difco.
(§7) After 24 hours of culture at 37° C., the microbial growth is harvested with the aid of glass beads and 10 ml of diluent containing 1 g of tryptone and 8.5 g of sodium chloride in 1000 ml of distilled water. The suspension formed is shaken and the percentage transmission of light at 620 nm is measured in a spectrophotometer:
(§8) The bacterial inoculum corresponds to a 1:20 dilution of this bacterial suspension.
(§9) Plates containing cupules receive different dilutions of the test product. These dilutions of the test product are brought into contact with the different bacterial suspensions using a multiple site inoculator. After a contact time of 30 minutes, aliquots are transferred with this inoculator to the surface of an agar medium (TSA) placed in Petri dishes containing an activity neutralizer, namely 20 g of lubrol W, 2.5 g of Tween 80, 2.5 g of sodium thiosulfate and 1% of egg yolk in 1000 ml of TSA (Difco). A control for the efficacy of the neutralizer is prepared for each test product by depositing an aliquot of the dilution of the test product on the surface of the culture medium. After drying, the corresponding inoculum is deposited in the same place. An inoculum control is prepared on agar medium with and without neutralizer. The results are read off after 48 hours of incubation at 37° C.
(§10) They indicate the minimum bactericidal concentrations (MBC) for strains 1, 2, 3 and 4 and the minimum fungicidal concentrations (MFC) for strain 5.

[2] = test system: Enterococcus faecium CIP 5855; assay: Minimum bactericidal concentration, first method (30 min contact), E. faecium; type: cell-based; settings: CIP5855, 0.5 h, contact time 30 minutes
Excerpt: as §1, §2, §3, §4, §6, §7, §8, §9, §10

[3] = test system: Escherichia coli CIP 54127; assay: Minimum bactericidal concentration, first method (30 min contact), E. coli; type: cell-based; settings: CIP54127, 0.5 h, contact time 30 minutes
Excerpt: as §1, §2, §3, §4
(§11) 3. Escherichia coli CIP 54127
as §6, §7, §8, §9, §10

[4] = test system: Pseudomonas aeruginosa CIP A22; assay: Minimum bactericidal concentration, first method (30 min contact), P. aeruginosa; type: cell-based; settings: CIPA22, 0.5 h, contact time 30 minutes
Excerpt: as §1, §2, §3, §4
4. Psuedomonas aeruginosa
as §6, §7, §8, §9, §10

[5] = test system: Candida albicans CIP 1180; assay: Minimum fungicidal concentration, first method (30 min contact), C. albicans; type: cell-based; settings: CIP1180, 0.5 h, contact time 30 minutes
Excerpt: as §1, §2, §3, §9
The antifungal activity of the products according to the invention was also determined using the method described above. A representative strain of yeast was selected for the study: Candida albicans CIP 1180 (strain 5).
This is maintained on Sabouraud's Dextrose Agar marketed by Difco. The technique is identical to that described for studying the antibacterial activity. After 48 hours of culture at 37° C., the microbial growth is harvested with the aid of glass beads and 5 ml of diluent containing 1 g of tryptone and 8.5 g of sodium chloride in 1000 ml of distilled water; a further 5 ml of the diluent are then added. This suspension gives a percentage transmission of light at 620 nm of 2 to 3% in a spectrophotometer.
The inoculum corresponds to a 1:10 dilution of this microbial suspension. A 1:100 dilution of this suspension, observed between slide and cover glass through a No. 40 microscope objective, must show 10 cells per field, which corresponds to 1,000,000 yeasts per ml.
as §10

[6] = test system: Staphylococcus aureus CIP 53154; assay: Percentage of bactericidal active principle, second method (5 min contact), S. aureus; type: cell-based; settings: destruction of 99.99%
Excerpt: as §1, §2
(§12) The second method makes it possible to define a percentage of bactericidal or fungicidal active principle by means of a simplified and automated adaptation of Afnor standards NF T 72-150 and NF T 72-170. In this method, the bactericidal activity of the product is determined with and without interfering substances. It is based on assessing the destruction of 99.99% of the initial bacteria by the product in 5 minutes. The interfering substances are of the protein type and are chosen for the actual conditions of application of this type of product. The contact time between product and bacterial suspension is 5 minutes, the neutralization step is 10 minutes and subculture is effected in a liquid medium.
(§13) The chosen bacterial strains are:
as §5, §6
(§14) The strains are harvested in a manner identical to the first method; these suspensions contain between 1.10^8 and 3.10^8 cells per milliliter. Appropriate dilutions make it possible to have a suspension containing 2 to 6.10^3 cells per milliliter.
(§15) The experiment is performed in microtiter plates; it comprises two steps. The first step, called the preliminary test, checks that the product is indeed neutralized. In the test proper, the different dilutions of the product are brought into contact with 2 to 6.10^3 cells per milliliter of the bacterial suspension in the second row of the microtiter plate. After a contact time of 5 minutes, an aliquot is transferred to the third row containing the neutralizer adapted to the product and to the strain. After a contact time of 10 minutes, aliquots are transferred to the last 5 rows containing Tryptic Soy Broth® (TSB) from Difco.
(§16) The interfering substances tested are a mixture of albumin and yeast extract. In the first row of the microplate, these proteins are brought into contact for 5 minutes with the different dilutions of the product. After this step, the same principle as above is applied: 5 minutes of contact with the germ, 10 minutes of contact with the neutralizer, transfer to TSB.

[7] = test system: Enterococcus faecium CIP 5855; assay: Percentage of bactericidal active principle, second method (5 min contact), E. faecium; type: cell-based; settings: destruction of 99.99%
Excerpt: as §1, §2, §12, §13, §6, §14, §15, §16

[8] = test system: Escherichia coli CIP 54127; assay: Percentage of bactericidal active principle, second method (5 min contact), E. coli; type: cell-based; settings: destruction of 99.99%
Excerpt: as §1, §2, §12, §13, §11, §6, §14, §15, §16

[9] = test system: Pseudomonas aeruginosa CIP A22; assay: Percentage of bactericidal active principle, second method (5 min contact), P. aeruginosa; type: cell-based; settings: destruction of 99.99%
Excerpt: as §1, §2, §12, §13
4. Pseudomonas aeruginosa
as §6, §14, §15, §16

[10] = test system: Candida albicans CIP 1180; assay: Percentage of fungicidal active principle, second method (5 min contact), C. albicans; type: cell-based
Excerpt: as §1, §2, §12, §15, §16
The antifungal activity of the products according to the invention was also determined with and without interfering substances using the method described above. The same strain was used as for the first technique, namely Candida albicans CIP 1180. It is harvested in an identical manner to that described in the first method.

[11] = test system: Mycobacterium smegmatis CIP 7326; assay: Percentage of bactericidal active principle, second method (5 min contact), M. smegmatis; type: cell-based; settings: destruction of 99.99%
Excerpt: as §1, §2, §12, §13
5. Mycobacterium smegmatis
as §6, §14, §15, §16

Product solubility = settings: for solubility: water
[12] = test system: S. aureus, E. faecium, E. coli, P. aeruginosa, C. albicans; assay: First method, bactericidal and fungicidal activity over all strains (Table II); type: cell-based; settings: contact time 30 minutes
Excerpt: as §1, §2, §3
Plates containing cupules receive different dilutions of the test product. These dilutions of the test product are brought into contact with the different bacterial suspensions using a multiple site inoculator. […] The results are read off after 48 hours of incubation at 37° C.
The antifungal activity of the products according to the invention was also determined using the method described above. […]

[13] = Simple: without interfering substances, * activity limited to the zone indicated
[14] = with proteins as interfering substances
[15] = Simple: without interfering substances

Row | SMILES | MBC [1] [µg/mL] | MBC [2] [µg/mL] | MBC [3] [µg/mL] | MBC [4] [µg/mL] | MFC [5] [µg/mL] | Bactericidal activity, results in percentage of active principle, S. aureus [6, 13] | Bactericidal activity, results in percentage of active principle, S. aureus [6, 14] | Bactericidal activity, results in percentage of active principle, E. faecium [7, 15] | Bactericidal activity, results in percentage of active principle, E. faecium [7, 14] | Bactericidal activity, results in percentage of active principle, E. coli [8, 15] | Bactericidal activity, results in percentage of active principle, E. coli [8, 14] | Bactericidal activity, results in percentage of active principle, P. aeruginosa [9, 15] | Bactericidal activity, results in percentage of active principle, P. aeruginosa [9, 14] | Fungicidal activity, results in percentage of active principle, C. albicans [10, 15] | Fungicidal activity, results in percentage of active principle, C. albicans [10, 14] | Bactericidal activity, results in percentage of active principle, M. smegmatis [11, 13] | Bactericidal activity, results in percentage of active principle, M. smegmatis [11, 14] | solubility (Product solubility) [mg/mL] | Ranking of MBC and MFC among the products [12] | Product solubility (Product solubility; in TEG (tetraethylene glycol)) [%]
1 | CCCCCCCCCCCC(=O)NCCCN(C)Cc1ccccc1 [SR 45583 A, N-(3-Benzylmethylaminopropyl)lauramide hydrochloride] | 50 | 10 | 10 | 50 | 50 | 0.05 percentage of active principle | 0.5 percentage of active principle | 0.01 percentage of active principle | 0.05 percentage of active principle | 0.05 percentage of active principle | 0.1 percentage of active principle | 0.01 percentage of active principle | 0.5 percentage of active principle | 0.05 percentage of active principle | 0.1 percentage of active principle | 0.01 percentage of active principle | 0.05 percentage of active principle | > 50 |  | 
2 | CCCCCCCCCCCC(=O)NCCN(C)Cc1ccccc1 [SR 45525] | 50 (≈ 144 µM) | 10 (≈ 28.9 µM) | 10 (≈ 28.9 µM) | 50 (≈ 144 µM) | 50 (≈ 144 µM) | 0.05 percentage of active principle | 0.5 percentage of active principle | 0.01 percentage of active principle | 0.5 percentage of active principle | 0.005 percentage of active principle | 0.1 percentage of active principle | 0.005 percentage of active principle | 0.5 percentage of active principle | 0.05 percentage of active principle | 0.5 percentage of active principle |  | 0.1 percentage of active principle | > 50 |  | 
3 | CCCCCCCCCCCC(=O)NCCCN1CCC(Cc2ccccc2)CC1 [SR 45320 A] | 10 (≈ 24.1 µM) | 10 (≈ 24.1 µM) | 10 (≈ 24.1 µM) | 10 (≈ 24.1 µM) | 10 (≈ 24.1 µM) | 0.005 percentage of active principle | 0.05 percentage of active principle | < 0.001 percentage of active principle | 0.1 percentage of active principle | 0.01 percentage of active principle | 0.05 percentage of active principle | 0.005 percentage of active principle | > 0.5 percentage of active principle | 0.005 percentage of active principle | 0.05 percentage of active principle |  | 0.05 percentage of active principle |  | lowest MBC and MFC | 1
4 | CCCCCCCCCCCC(=O)NCCN1CCC(Cc2ccccc2)CC1.Cl [SR 44944 A, N-[2-(4-Benzylpiperidino)ethyl]lauramide hydrochloride] | 10 | 10 | 10 | 50 | 10 | < 0.01 percentage of active principle | 0.1 percentage of active principle | < 0.01 percentage of active principle | 0.03 percentage of active principle | 0.01 percentage of active principle | < 0.01 percentage of active principle | < 0.01 percentage of active principle | 0.25 percentage of active principle | 0.01 percentage of active principle | 0.06 percentage of active principle | > 0.5 percentage of active principle | 0.06 percentage of active principle |  |  | 
